Assay [1] has as its target T1, hEP2 (Homo sapiens, UniProt P43116).
T1 construct: expressed in transfected cells; host or cells: HEK293
Description: hEP2 cAMP assay. The class given is cell-based. The following applies: HEK293 cells overexpressing hEP2; PGE2 agonist 400 pM; graded per Table 21; read-out: IC50 (nM) EP2 cAMP. The method, boiled down: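 HEK293 cells overexpressing hEP2, serum-starved 4 h, then 1,000 cells/well treated with compound (10 μM–0.001 nM) plus 400 pM PGE2 (about EC50-80) in HBSS buffer with 0.5 mM IBMX for 12 min at room temperature. cAMP measured by TR-FRET (665/615 nm) as % of DMSO control; IC50 from 4-parameter fit, median of repeats.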

The target of assay [2] is T2, hEP4 (Homo sapiens, UniProt P35408).
T2 construct: expressed in transfected cells; host or cells: HEK293
As to the kind of experiment: hEP4 cAMP assay. The settings on record: HEK293 cells overexpressing hEP4; PGE2 agonist 20 nM; graded per Table 21; read-out: IC50 (nM) EP4 cAMP. Type of assay: cell-based. Summed up:
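HEK293 cells overexpressing hEP4, starved 4 h, were treated with compound (10 μM-0.001 nM) plus 20 nM PGE2 (EC50-80) in HBSS buffer with 0.5 mM IBMX for 18.5 min at room temperature. cAMP was read by TR-FRET (665/615 nm) as % of DMSO control; IC50 from 4-parameter fit, median of multiple experiments.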
(In general: Changes in cAMP serve as a functional read-out for many G protein-coupled receptors.)

Experimental findings from patent publication US20230365582A1, “NOVEL COMPOUNDS HAVING INHIBITORY ACTIVITY ON PROSTAGLANDIN E2 RECEPTOR AND USES THEREOF” (KANAPH THERAPEUTICS INC., priority 2020, published 2023) are described below.

Each structure is given as a SMILES string.

T2 sequence (P35408 whole entry): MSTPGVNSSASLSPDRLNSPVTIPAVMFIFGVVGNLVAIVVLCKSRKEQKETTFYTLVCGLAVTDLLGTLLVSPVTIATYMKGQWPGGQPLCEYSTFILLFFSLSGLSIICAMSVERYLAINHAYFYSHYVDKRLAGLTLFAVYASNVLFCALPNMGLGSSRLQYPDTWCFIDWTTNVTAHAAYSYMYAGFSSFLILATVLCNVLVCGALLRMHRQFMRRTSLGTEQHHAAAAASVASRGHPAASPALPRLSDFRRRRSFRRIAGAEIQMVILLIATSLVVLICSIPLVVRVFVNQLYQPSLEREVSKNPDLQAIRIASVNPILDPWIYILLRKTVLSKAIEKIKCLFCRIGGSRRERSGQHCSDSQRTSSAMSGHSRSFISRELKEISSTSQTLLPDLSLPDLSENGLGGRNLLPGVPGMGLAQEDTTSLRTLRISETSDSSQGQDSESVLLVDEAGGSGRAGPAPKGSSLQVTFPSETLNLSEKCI
T1 sequence (P43116 whole entry): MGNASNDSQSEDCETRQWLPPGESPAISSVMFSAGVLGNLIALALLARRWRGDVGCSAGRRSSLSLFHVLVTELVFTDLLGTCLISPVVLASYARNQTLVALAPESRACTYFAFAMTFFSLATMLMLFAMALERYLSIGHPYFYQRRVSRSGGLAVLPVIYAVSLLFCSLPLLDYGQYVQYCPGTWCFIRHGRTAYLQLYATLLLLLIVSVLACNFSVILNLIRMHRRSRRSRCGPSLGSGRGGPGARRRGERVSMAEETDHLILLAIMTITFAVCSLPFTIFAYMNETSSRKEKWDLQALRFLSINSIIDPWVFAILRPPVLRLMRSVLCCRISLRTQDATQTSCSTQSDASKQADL

As for `Cn1cc(-c2ccc(Cn3ccc4scc(C(=O)NC5CC6(C5)CC(C(=O)O)C6)c43)cc2)cn1` (stereo not drawn) [Example 102, 6-(4-(4-(1-methyl-1H-pyrazol-4-yl)benzyl)-4H-thieno[3,2-b]pyrrole-3-carboxamido)spiro[3.3]heptane-2-carboxylic acid], the results for the IC50 in assay [1] and in assay [2] were > 10000 nM and < 500 nM, respectively.

For `O=C(NC1CC2(C1)CC(C(=O)O)C2)c1csc2ccn(Cc3ccc4c(ccn4Cc4ccccc4)c3)c12` (stereo not drawn) [Example 103, 6-(4-((1-benzyl-IH-indol-5-yl)methyl)-4H-thieno[3,2-b]pyrrole-3-carboxamido)spiro[3.3]heptane-2-carboxylic acid], the IC50 (usually the midpoint of a concentration-inhibition curve) is > 10000 nM in assay [1] and < 500 nM in assay [2].

Regarding `O=C(NC1CC2(C1)CC(C(=O)O)C2)c1csc2ccn(Cc3ccc(-c4ccccn4)cc3)c12` (stereo not drawn) [Example 104, 6-(4-(4-(pyridin-2-yl)benzyl)-4H-thieno[3,2-b]pyrrole-3-carboxamido)spiro[3.3]heptane-2-carboxylic acid], the IC50 in assay [1] is 5000 to 10000 nM; in assay [2], < 500 nM.

With `O=C(NC1CC2(C1)CC(C(=O)O)C2)c1csc2ccn(Cc3ccc(-c4ccccc4)nc3)c12` (stereo not drawn) [Example 105, 6-(4-((6-phenylpyridin-3-yl)methyl)-4H-thieno[3,2-b]pyrrole-3-carboxamido)spiro[3.3]heptane-2-carboxylic acid], the IC50 is 500 to 5000 nM in assay [1] and < 500 nM in assay [2].

Turning to `O=C(NC1CC2(C1)CC(C(=O)O)C2)c1csc2ccn(Cc3ccc(-c4ccncc4)cc3)c12` (stereo not drawn) [Example 106, 6-(4-(4-(pyridin-4-yl)benzyl)-4H-thieno[3,2-b]pyrrole-3-carboxamido)spiro[3.3]heptane-2-carboxylic acid], the IC50 in assay [1] was 5000 to 10000 nM; in assay [2], < 500 nM.

Consider `O=C(NC1CC2(C1)CC(C(=O)O)C2)c1csc2ccn(Cc3ccc(-n4cccn4)cc3)c12` (stereo not drawn) [Example 107, 6-(4-(4-(1H-pyrazol-1-yl)benzyl)-4H-thieno[3,2-b]pyrrole-3-carboxamido)spiro[3.3]heptane-2-carboxylic acid], for which the results for the concentration for half-maximal inhibition (IC50) in assay [1] and in assay [2] were > 10000 nM and 500 to 5000 nM, respectively.

On to `COc1cccc(-c2ccc(Cn3ccc4scc(C(=O)NC5CC6(C5)CC(C(=O)O)C6)c43)cc2)n1` (stereo not drawn) [Example 108, 6-(4-(4-(6-methoxypyridin-2-yl)benzyl)-4H-thieno[3,2-b]pyrrole-3-carboxamido)spiro[3.3]heptane-2-carboxylic acid], for which the IC50 in assay [1] was 500 to 5000 nM; in assay [2], < 500 nM.

Take `COc1ccnc(-c2ccc(Cn3ccc4scc(C(=O)NC5CC6(C5)CC(C(=O)O)C6)c43)cc2)c1` (stereo not drawn) [Example 109, 6-(4-(4-(4-methoxypyridin-2-yl)benzyl)-4H-thieno[3,2-b]pyrrole-3-carboxamido)spiro[3.3]heptane-2-carboxylic acid]: the half-inhibitory concentration (IC50) is 500 to 5000 nM in assay [1] and < 500 nM in assay [2].

Consider `COc1cc(F)cc(-c2ccc(Cn3ccc4scc(C(=O)NC5CC6(C5)CC(C(=O)O)C6)c43)cn2)c1` (stereo not drawn) [Example 110, 6-(4-((6-(3-fluoro-5-methoxyphenyl)pyridin-3-yl)methyl)-4H-thieno[3,2-b]pyrrole-3-carboxamido)spiro[3.3]heptane-2-carboxylic acid], for which the IC50 in assay [1] and in assay [2] was < 500 nM each time.

Take `Cc1cnn(-c2ccc(Cn3ccc4scc(C(=O)NC5CC6(C5)CC(C(=O)O)C6)c43)cc2)c1` (stereo not drawn) [Example 111, 6-(4-(4-(4-methyl-1H-pyrazol-1-yl)benzyl)-4H-thieno[3,2-b]pyrrole-3-carboxamido)spiro[3.3]heptane-2-carboxylic acid]: the IC50 in assay [1] was > 10000 nM; in assay [2], < 500 nM.

`Cc1cc(C(F)(F)F)n(-c2ccc(Cn3ccc4scc(C(=O)NC5CC6(C5)CC(C(=O)O)C6)c43)cc2)n1` (stereo not drawn) [Example 112, 6-(4-(4-(3-methyl-5-(trifluoromethyl)-IH-pyrazol-1-yl)benzyl)-4H-thieno[3,2-b]pyrrole-3-carboxamido)spiro[3.3]heptane-2-carboxylic acid]: the IC50 in assay [1] is > 10000 nM; in assay [2], 500 to 5000 nM.

For the compound `COc1cc(F)cc(-c2ccc(Cn3ccc4scc(C(=O)NC5CC6(C5)CC(C(=O)O)C6)c43)nc2)c1` (stereo not drawn) [Example 113, 6-(4-((5-(3-fluoro-5-methoxyphenyl)pyridin-2-yl)methyl)-4H-thieno[3,2-b]pyrrole-3-carboxamido)spiro[3.3]heptane-2-carboxylic acid], the results for the IC50 in assay [1] and in assay [2] were 500 to 5000 nM and < 500 nM, respectively.
